Results reported in ChEMBL document CHEMBL1909046, “DrugMatrix in vitro pharmacology data”.

How the values were obtained:
[1] = molecular target: Cannabinoid receptor 1 (Homo sapiens, UniProt P21554); type: cell membranes, Chem-1, Membrane
[2] = molecular target: Nitric oxide synthase 1 (Rattus norvegicus, UniProt P29476); type: tissue-based, Cerebellum
[3] = molecular target: T1, Adenosine receptor A3 (Homo sapiens, UniProt P0DMS8); type: cell membranes, CHO-K1, Membrane;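 further: radioligand binding assay with AB-MECA serving as the labeled ligand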
T1 sequence (P0DMS8 whole entry): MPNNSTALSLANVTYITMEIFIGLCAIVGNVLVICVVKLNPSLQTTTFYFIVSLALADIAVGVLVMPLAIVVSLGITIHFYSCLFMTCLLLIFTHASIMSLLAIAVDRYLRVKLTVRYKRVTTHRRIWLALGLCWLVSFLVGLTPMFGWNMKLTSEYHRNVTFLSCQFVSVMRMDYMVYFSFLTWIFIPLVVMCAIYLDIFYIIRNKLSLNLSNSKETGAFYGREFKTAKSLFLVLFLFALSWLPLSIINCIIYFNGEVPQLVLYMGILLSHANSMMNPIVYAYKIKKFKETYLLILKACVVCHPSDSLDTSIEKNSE

[4] = molecular target: Substance-P receptor (Homo sapiens, UniProt P25103); type: cell membranes, CHO, Membrane
Sequence of Substance-P receptor (P25103 whole entry): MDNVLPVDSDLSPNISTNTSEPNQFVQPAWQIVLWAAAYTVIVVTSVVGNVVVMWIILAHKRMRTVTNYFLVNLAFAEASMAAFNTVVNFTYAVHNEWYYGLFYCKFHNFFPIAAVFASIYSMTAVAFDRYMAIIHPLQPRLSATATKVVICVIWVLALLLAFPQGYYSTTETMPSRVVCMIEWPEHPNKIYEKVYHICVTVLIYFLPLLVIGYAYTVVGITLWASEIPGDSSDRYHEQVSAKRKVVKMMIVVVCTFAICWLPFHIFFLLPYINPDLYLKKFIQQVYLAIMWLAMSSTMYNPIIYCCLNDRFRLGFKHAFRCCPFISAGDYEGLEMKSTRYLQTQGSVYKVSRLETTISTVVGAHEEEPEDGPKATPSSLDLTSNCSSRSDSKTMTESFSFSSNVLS

[5] = molecular target: Estrogen receptor beta (Homo sapiens, UniProt Q92731); settings: sf9
Sequence of Estrogen receptor beta (Q92731 whole entry): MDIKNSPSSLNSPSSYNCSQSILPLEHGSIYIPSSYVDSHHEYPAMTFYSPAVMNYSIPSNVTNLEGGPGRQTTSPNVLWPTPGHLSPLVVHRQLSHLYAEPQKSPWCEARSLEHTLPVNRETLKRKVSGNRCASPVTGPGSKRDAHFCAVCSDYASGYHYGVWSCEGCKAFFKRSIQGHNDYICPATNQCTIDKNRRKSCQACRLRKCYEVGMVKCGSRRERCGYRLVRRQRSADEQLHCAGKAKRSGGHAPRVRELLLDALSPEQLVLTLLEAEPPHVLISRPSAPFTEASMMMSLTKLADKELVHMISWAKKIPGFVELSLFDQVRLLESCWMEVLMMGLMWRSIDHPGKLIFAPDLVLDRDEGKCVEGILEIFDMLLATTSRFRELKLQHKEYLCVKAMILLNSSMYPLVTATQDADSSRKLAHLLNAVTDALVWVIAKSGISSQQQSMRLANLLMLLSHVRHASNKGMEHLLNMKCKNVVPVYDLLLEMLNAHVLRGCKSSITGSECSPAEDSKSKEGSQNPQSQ
Further: in other assays of this panel Not Active means under 50% inhibition at 10 µM.

Sequence of Nitric oxide synthase 1 (P29476 whole entry): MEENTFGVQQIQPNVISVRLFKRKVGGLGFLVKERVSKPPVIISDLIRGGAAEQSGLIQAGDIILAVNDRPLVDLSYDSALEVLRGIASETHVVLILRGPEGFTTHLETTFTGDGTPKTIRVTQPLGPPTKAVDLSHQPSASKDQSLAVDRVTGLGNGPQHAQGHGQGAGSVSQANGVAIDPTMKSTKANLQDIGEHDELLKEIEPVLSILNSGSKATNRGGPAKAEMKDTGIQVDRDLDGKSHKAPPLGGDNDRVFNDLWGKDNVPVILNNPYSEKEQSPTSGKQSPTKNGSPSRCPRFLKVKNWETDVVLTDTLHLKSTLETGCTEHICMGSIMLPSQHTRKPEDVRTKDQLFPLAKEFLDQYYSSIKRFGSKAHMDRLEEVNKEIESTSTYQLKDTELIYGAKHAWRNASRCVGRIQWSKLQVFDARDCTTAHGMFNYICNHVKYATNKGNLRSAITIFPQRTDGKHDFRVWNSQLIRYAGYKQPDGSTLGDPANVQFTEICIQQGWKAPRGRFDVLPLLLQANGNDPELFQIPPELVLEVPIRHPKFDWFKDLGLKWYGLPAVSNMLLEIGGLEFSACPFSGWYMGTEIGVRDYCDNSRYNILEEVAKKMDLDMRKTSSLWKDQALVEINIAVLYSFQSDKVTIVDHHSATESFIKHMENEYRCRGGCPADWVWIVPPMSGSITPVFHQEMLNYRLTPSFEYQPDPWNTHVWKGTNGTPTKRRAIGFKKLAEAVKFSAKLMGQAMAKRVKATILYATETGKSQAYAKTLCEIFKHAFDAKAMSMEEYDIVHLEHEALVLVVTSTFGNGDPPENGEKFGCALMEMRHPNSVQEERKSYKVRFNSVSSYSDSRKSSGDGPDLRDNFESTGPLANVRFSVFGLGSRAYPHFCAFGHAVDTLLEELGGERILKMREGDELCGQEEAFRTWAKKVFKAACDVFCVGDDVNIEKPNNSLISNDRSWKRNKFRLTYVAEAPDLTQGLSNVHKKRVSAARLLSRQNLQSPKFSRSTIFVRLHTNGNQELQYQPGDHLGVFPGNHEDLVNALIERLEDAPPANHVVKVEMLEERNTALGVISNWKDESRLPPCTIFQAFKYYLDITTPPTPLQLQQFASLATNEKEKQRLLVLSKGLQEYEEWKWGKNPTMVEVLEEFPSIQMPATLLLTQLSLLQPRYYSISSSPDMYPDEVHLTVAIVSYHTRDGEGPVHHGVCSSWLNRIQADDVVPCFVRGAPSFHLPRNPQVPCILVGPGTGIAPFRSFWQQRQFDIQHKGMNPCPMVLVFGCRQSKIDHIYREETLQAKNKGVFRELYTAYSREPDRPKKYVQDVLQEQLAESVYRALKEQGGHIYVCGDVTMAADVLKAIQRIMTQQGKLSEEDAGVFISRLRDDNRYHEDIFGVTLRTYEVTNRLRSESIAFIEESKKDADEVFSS
Sequence of Cannabinoid receptor 1 (P21554 whole entry): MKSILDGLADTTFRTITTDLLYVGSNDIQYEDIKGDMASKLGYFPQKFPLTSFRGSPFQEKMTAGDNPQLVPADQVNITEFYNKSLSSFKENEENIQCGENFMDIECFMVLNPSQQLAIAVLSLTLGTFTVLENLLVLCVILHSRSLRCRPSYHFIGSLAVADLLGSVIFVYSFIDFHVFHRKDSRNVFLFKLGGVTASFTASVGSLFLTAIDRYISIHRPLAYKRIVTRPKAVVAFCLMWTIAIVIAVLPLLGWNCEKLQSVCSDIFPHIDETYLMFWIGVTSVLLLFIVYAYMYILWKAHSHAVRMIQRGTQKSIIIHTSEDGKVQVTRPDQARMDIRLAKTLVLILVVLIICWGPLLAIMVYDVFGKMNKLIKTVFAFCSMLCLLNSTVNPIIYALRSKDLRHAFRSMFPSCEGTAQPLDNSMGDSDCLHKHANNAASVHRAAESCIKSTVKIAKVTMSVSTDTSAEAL

Row | Molecule | IC50 ([1]; chem-1) | IC50 [2] | IC50 ([3]; cho-k1) | IC50 ([4]; cho) | IC50 [5] | further results
1 | CC(=N)S [THIOACETAMIDE] | Not Active | Not Active | Not Active | Not Active | Not Active | –
2 | O=C1C[C@@H]2OCC=C3CN4CC[C@]56c7ccccc7N1[C@H]5[C@H]2[C@H]3C[C@H]46 [STRYCHNINE] | Not Active | Not Active | Not Active | Not Active | – | –
3 | Nc1ccc(S(=O)(=O)NC(=O)c2ccccc2)cc1 [SULFABENZAMIDE] | Not Active | Not Active | Not Active | Not Active | Not Active | –
4 | CC(=O)OCC(COC(C)=O)OC(C)=O [TRIACETIN] | Not Active | Not Active | Not Active | Not Active | Not Active | –
5 | CCCCC(=O)N(Cc1ccc(-c2ccccc2-c2nnn[nH]2)cc1)[C@H](C(=O)O)C(C)C | Not Active | Not Active | Not Active | Not Active | Not Active | –
6 | OCCOCCN1CCN(C2=Nc3ccccc3Sc3ccccc32)CC1 [QUETIAPINE] | Not Active | Not Active | Not Active | Not Active | Not Active | –
7 | CC1CCC(NC(=O)N(CCCl)N=O)CC1 (stereo not drawn) [SEMUSTINE] | Not Active | Not Active | Not Active | Not Active | Not Active | –
8 | Oc1ccc2c3c1O[C@H]1[C@@H](O)CC[C@@]4(O)[C@@H](C2)N(CC2CCC2)CC[C@]314 [NALBUPHINE] | Not Active | Not Active | Not Active | Not Active | Not Active | –
9 | Clc1ccc(COC(Cn2ccnc2)c2ccc(Cl)cc2Cl)c(Cl)c1 (stereo not drawn) [MICONAZOLE] | – | Not Active | – | – | Not Active | IC50 ([1]; read-out: IC50): 21 µM; Ki ([1]; read-out: Ki): 16.6 µM; IC50 ([4]; read-out: IC50): 6.81 µM; Ki ([4]; read-out: Ki): 3.72 µM
10 | O=C(O)CCCCC1CCSS1 (stereo not drawn) [LIPOIC ACID, ALPHA] | Not Active | Not Active | Not Active | Not Active | Not Active | –
11 | CCCCCCCCNC(C)C(O)c1ccc(SC(C)C)cc1 (stereo not drawn) [SULOCTIDIL] | Not Active | Not Active | – | Not Active | Not Active | IC50 ([3]; read-out: IC50): 3.71 µM; Ki ([3]; read-out: Ki): 2.09 µM
12 | COC(=O)[C@H]1[C@H]2C[C@@H]3c4[nH]c5cc(OC)ccc5c4CCN3C[C@H]2C[C@@H](OC(=O)c2cc(OC)c(OC)c(OC)c2)[C@@H]1OC [RESERPINE] | Not Active | Not Active | Not Active | Not Active | – | –
13 | O=c1[nH]c(=O)n(C2CCCO2)cc1F (stereo not drawn) [TEGAFUR] | Not Active | Not Active | Not Active | Not Active | Not Active | –
14 | CC(C)NC[C@H](O)COc1cccc2ccccc12 [LEVOPROPRANOLOL] | Not Active | Not Active | Not Active | Not Active | Not Active | –
15 | CN1[C@@H]2CC[C@H]1C[C@@H](OC(c1ccccc1)c1ccccc1)C2 [BENZTROPINE] | Not Active | Not Active | Not Active | Not Active | Not Active | –
16 | Cc1ccc(C(=O)c2ccc(CC(=O)O)n2C)cc1 [TOLMETIN] | Not Active | Not Active | Not Active | Not Active | Not Active | –
17 | C[S+]([O-])c1ccc(-c2nc(-c3ccncc3)c(-c3ccc(F)cc3)[nH]2)cc1 (stereo not drawn) [SB-203580] | Not Active | Not Active | Not Active | Not Active | Not Active | –
18 | CN1CCN(C2=Nc3cc(Cl)ccc3Nc3ccccc32)CC1 [CLOZAPINE] | Not Active | Not Active | Not Active | Not Active | Not Active | –
19 | C[C@]12C=CC(=O)C=C1CC[C@@H]1[C@@H]2C(=O)C[C@@]2(C)[C@H]1CC[C@]2(O)C(=O)CO [PREDNISONE] | Not Active | Not Active | Not Active | Not Active | Not Active | –
20 | CC(C)NC[C@@H](O)COc1cccc2ccccc12 [DEXPROPRANOLOL] | Not Active | Not Active | Not Active | Not Active | Not Active | –
21 | CN1CCN(CCCN2c3ccccc3Sc3ccc(C(F)(F)F)cc32)CC1 [TRIFLUOPERAZINE] | Not Active | Not Active | Not Active | Not Active | Not Active | –
22 | O=C(O)COc1ccc(C(=O)c2cccs2)c(Cl)c1Cl | Not Active | Not Active | Not Active | Not Active | Not Active | –
23 | C[N+](C)(C)CCOC(=O)CCC(=O)OCC[N+](C)(C)C.[Cl-].[Cl-] [SUCCINYLCHOLINE CHLORIDE] | Not Active | Not Active | Not Active | Not Active | Not Active | –
24 | TRANSPLATIN | Not Active | Not Active | – | Not Active | Not Active | Ki ([1]; chem-1): Not Active; Ki [2]: Not Active; IC50 ([3]; cho-k1, read-out: IC50): 0.989 µM; Ki ([3]; cho-k1, read-out: Ki): 0.559 µM; Ki ([4]; cho): Not Active; Ki [5]: Not Active
25 | C[C@@](Cc1ccc(O)c(O)c1)(NN)C(=O)O.O [CARBIDOPA] | Not Active | Not Active | Not Active | Not Active | – | –
26 | ZIRCONIUM(IV) CHLORIDE | Not Active | Not Active | Not Active | Not Active | Not Active | Ki ([1]; chem-1): Not Active; Ki [2]: Not Active; Ki ([3]; cho-k1): Not Active; Ki ([4]; cho): Not Active; Ki [5]: Not Active
27 | CN(C)C(=O)C(CCN1CCC(O)(c2ccc(Cl)cc2)CC1)(c1ccccc1)c1ccccc1 [LOPERAMIDE] | Not Active | Not Active | Not Active | Not Active | Not Active | –
28 | O=C(O)c1ccccc1O [SALICYLIC ACID] | Not Active | Not Active | Not Active | Not Active | – | –
